From the supplement of paper PMC10307832

Experiments:
Test in all cases: relative viability (nuclei count vs DMSO), 5 days (fraction); higher = more cells survive
[1] = compound: C1=CC2=C(C=C(C(=C2N=C1)O)N=NC3=CC4=C(C=C3)C=C(C=C4)S(=O)(=O)O)S(=O)(=O)O + CC1(C)CCC(c2ccc(Cl)cc2)=C(CN2CCN(c3ccc(C(=O)NS(=O)(=O)c4ccc(N[C@H](CCN5CCOCC5)CSc5ccccc5)c(S(=O)(=O)C(F)(F)F)c4)cc3)CC2)C1 [Navitoclax] (partner 0.5 µM)
How it was run: (§1)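 Lung cancer cell lines were seeded in 1536-well plates and dosed by pin tool the next day, with either a single drug or a fixed anchor-drug dose combined with five library-drug doses (not always all listed) spaced in √10 steps. Five days later, one step fixed the cells and stained their nuclei (final 0.05% Triton X-100, 1% formaldehyde, 1 ug/ml Hoechst), and nuclei were counted on 4× images. Relative viability is the nuclei count in treated wells divided by the count in vehicle wells, and each value is the median of duplicate plates.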

[2] = compound: C1=CC2=C(C=C(C(=C2N=C1)O)N=NC3=CC4=C(C=C3)C=C(C=C4)S(=O)(=O)O)S(=O)(=O)O + C[C@]1(O)C[C@@H](c2nc(-c3ccc4ccc(-c5ccccc5)nc4c3)c3c(N)nccn32)C1 [Linsitinib] (partner 1 µM)
How it was run: as §1

[3] = compound: C1=CC2=C(C=C(C(=C2N=C1)O)N=NC3=CC4=C(C=C3)C=C(C=C4)S(=O)(=O)O)S(=O)(=O)O + CC(=O)Nc1cccc(-n2c(=O)n(C3CC3)c(=O)c3c(Nc4ccc(I)cc4F)n(C)c(=O)c(C)c32)c1 [Trametinib] (partner 0.02 µM)
How it was run: as §1

[4] = compound: C1=CC2=C(C=C(C(=C2N=C1)O)N=NC3=CC4=C(C=C3)C=C(C=C4)S(=O)(=O)O)S(=O)(=O)O + CC(=O)c1c(C)c2cnc(Nc3ccc(N4CCNCC4)cn3)nc2n(C2CCCC2)c1=O [Palbociclib] (partner 0.5 µM)
How it was run: as §1

Cell Line | relative viability ([1]; first compound 0.08 µM) | relative viability ([1]; first compound 0.253 µM) | relative viability ([1]; first compound 0.8 µM) | relative viability ([1]; first compound 2.53 µM) | relative viability ([1]; first compound 8 µM) | relative viability ([2]; first compound 0.08 µM) | relative viability ([2]; first compound 0.253 µM) | relative viability ([2]; first compound 0.8 µM) | relative viability ([2]; first compound 2.53 µM) | relative viability ([2]; first compound 8 µM) | relative viability ([3]; first compound 0.08 µM) | relative viability ([3]; first compound 0.253 µM) | relative viability ([3]; first compound 0.8 µM) | relative viability ([3]; first compound 2.53 µM) | relative viability ([3]; first compound 8 µM) | relative viability ([4]; first compound 0.08 µM) | relative viability ([4]; first compound 0.253 µM) | relative viability ([4]; first compound 0.8 µM) | relative viability ([4]; first compound 2.53 µM) | relative viability ([4]; first compound 8 µM)
NCI-H1666 | 0.87 | 0.91 | 0.962 | 1.14 | 0.842 | 0.876 | 0.831 | 0.74 | 0.84 | 0.673 | 0.874 | 0.877 | 0.861 | 0.861 | 0.903 | 0.667 | 0.704 | 0.626 | 0.668 | 0.645
NCI-H1734 | 1.13 | 0.86 | 0.784 | 0.877 | 0.884 | 0.909 | 0.877 | 0.816 | 0.884 | 0.897 | 0.728 | 0.654 | 0.687 | 0.72 | 0.694 | 0.367 | 0.323 | 0.344 | 0.375 | 0.329
NCI-H1755 | 1.06 | 0.963 | 0.977 | 0.993 | 0.726 | 1.08 | 0.969 | 0.954 | 1.05 | 0.991 | 0.761 | 0.754 | 0.739 | 0.761 | 0.732 | 0.473 | 0.438 | 0.437 | 0.468 | 0.415
NCI-H1792 | 0.712 | 0.578 | 0.598 | 0.623 | 0.632 | 0.667 | 0.48 | 0.619 | 0.592 | 0.565 | 0.5 | 0.387 | 0.454 | 0.494 | 0.391 | 0.674 | 0.654 | 0.673 | 0.667 | 0.597
NCI-H1793 | 0.48 | 0.364 | – | 0.545 | 0.557 | 1.29 | 0.678 | – | 1.04 | 0.964 | 0.53 | 0.387 | 0.452 | 0.347 | 0.348 | 0.352 | 0.327 | 0.283 | 0.3 | 0.271
NCI-H1915 | 0.818 | 0.764 | 0.835 | 0.765 | 0.768 | 1.06 | 1.14 | 1.13 | 1.08 | 1.14 | 0.268 | 0.299 | 0.288 | 0.301 | 0.28 | 0.415 | 0.523 | 0.488 | 0.545 | 0.494
NCI-H1944 | 1.13 | 0.982 | 0.992 | 1.06 | 0.991 | 1.21 | 1.15 | 1.24 | 1.17 | 1.25 | 0.415 | 0.385 | 0.416 | 0.474 | 0.366 | 0.347 | 0.323 | 0.337 | 0.359 | 0.327
NCI-H1975 | 1.3 | 1.13 | 1.07 | 1.26 | 0.979 | 1.02 | 0.913 | 0.92 | 0.918 | 0.908 | 0.382 | 0.332 | 0.381 | 0.292 | 0.585 | 0.753 | 0.592 | 0.606 | 0.639 | 0.666
NCI-H1993 | 1.05 | 0.913 | 1.05 | 0.893 | 1.01 | 0.757 | 0.694 | 0.653 | 0.702 | 0.717 | 0.49 | 0.465 | 0.575 | 0.539 | 0.504 | 0.625 | 0.669 | 0.603 | 0.687 | 0.763
NCI-H2009 | 1.19 | 1.1 | 1.08 | 1.14 | 1.18 | 1.21 | 1.07 | 1.21 | 1.2 | 1.19 | 0.316 | 0.3 | 0.294 | 0.288 | 0.24 | 0.221 | 0.22 | 0.245 | 0.214 | 0.192
NCI-H2023 | 1.03 | 1.01 | 0.965 | 0.984 | 0.973 | 0.675 | 0.593 | 0.69 | 0.675 | 0.653 | 0.527 | 0.58 | 0.558 | 0.589 | 0.637 | 0.451 | 0.395 | 0.391 | 0.421 | 0.309
NCI-H2085 | 1.2 | 1.14 | 0.98 | 1.12 | 1.18 | 1.06 | 0.927 | 0.978 | 0.821 | 0.892 | 0.538 | 0.512 | 0.557 | 0.582 | 0.433 | 0.492 | 0.481 | 0.451 | 0.486 | 0.463
NCI-H2087 | 0.926 | 0.878 | 0.868 | 0.889 | 0.948 | 1 | 1.12 | 0.82 | 0.964 | 1.15 | 0.2 | 0.213 | 0.196 | 0.217 | 0.236 | 0.238 | 0.213 | 0.199 | 0.215 | 0.191
NCI-H2126 | 0.882 | 0.792 | 0.845 | 0.935 | 0.832 | 0.72 | 0.688 | 0.718 | 0.752 | 0.731 | 0.568 | 0.539 | 0.56 | 0.606 | 0.555 | 0.342 | 0.363 | 0.359 | 0.36 | 0.327
NCI-H2228 | 1.09 | 0.801 | 0.953 | 0.577 | 0.874 | 0.653 | 0.611 | 0.598 | 0.634 | 0.777 | 0.81 | 0.453 | 0.603 | 0.443 | 0.703 | 0.81 | 0.726 | 0.79 | 0.822 | 0.92
NCI-H2347 | 0.898 | 0.738 | 0.809 | 0.917 | 0.391 | 1.01 | 0.894 | 0.881 | 1.03 | 1.03 | 0.316 | 0.303 | 0.279 | 0.262 | 0.316 | 0.459 | 0.447 | 0.44 | 0.482 | 0.426
